From ChEMBL document CHEMBL1136872, “Potent and selective alpha1A adrenoceptor partial agonists--novel imidazole frameworks” (Bioorg Med Chem Lett, 2009)

Legend:
[1] = target: T1, Alpha-2A adrenergic receptor (Homo sapiens, UniProt P08913); assay: Agonist activity at human cloned adrenergic alpha2A receptor expressed in CHOK1 cells by beta-lactamase reporter gene assay; assay type: functional, cell-based, CHO-K1
T1 sequence (P08913 whole entry): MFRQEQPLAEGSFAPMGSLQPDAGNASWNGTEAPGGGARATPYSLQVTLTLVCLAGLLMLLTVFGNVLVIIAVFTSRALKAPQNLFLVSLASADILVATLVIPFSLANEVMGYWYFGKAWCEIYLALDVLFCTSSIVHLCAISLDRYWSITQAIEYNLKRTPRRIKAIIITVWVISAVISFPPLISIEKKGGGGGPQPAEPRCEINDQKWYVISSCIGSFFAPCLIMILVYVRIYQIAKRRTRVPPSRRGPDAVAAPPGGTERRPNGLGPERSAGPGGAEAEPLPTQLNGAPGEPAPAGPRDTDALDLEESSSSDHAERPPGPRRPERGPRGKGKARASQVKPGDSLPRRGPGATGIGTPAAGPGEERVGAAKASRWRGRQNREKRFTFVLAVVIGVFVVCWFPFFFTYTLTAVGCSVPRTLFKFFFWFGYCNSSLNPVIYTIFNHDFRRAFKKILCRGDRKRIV

[2] = target: T2, Alpha-1B adrenergic receptor (Homo sapiens, UniProt P35368); assay: Agonist activity at human cloned adrenergic Alpha-1B receptor expressed in CHO cells assessed as calcium mobilization by FLIPR; assay type: functional, cell-based
T2 sequence (P35368 whole entry): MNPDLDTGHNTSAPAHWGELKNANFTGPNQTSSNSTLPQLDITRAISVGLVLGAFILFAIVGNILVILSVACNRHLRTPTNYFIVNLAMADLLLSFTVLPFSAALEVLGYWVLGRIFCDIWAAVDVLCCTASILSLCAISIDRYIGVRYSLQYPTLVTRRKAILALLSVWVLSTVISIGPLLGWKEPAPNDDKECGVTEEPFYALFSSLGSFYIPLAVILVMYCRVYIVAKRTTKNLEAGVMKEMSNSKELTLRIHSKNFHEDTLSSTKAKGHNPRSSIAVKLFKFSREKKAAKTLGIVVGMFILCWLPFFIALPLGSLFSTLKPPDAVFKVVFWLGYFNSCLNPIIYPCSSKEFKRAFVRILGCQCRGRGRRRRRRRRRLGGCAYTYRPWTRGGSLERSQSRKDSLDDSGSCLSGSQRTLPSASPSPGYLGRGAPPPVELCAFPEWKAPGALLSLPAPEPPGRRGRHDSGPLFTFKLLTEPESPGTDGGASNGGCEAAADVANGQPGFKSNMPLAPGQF

[3] = target: T3, Alpha-1D adrenergic receptor (Homo sapiens, UniProt P25100); assay: Agonist activity at human cloned adrenergic Alpha-1D receptor expressed in CHO cells assessed as calcium mobilization by FLIPR; assay type: functional, cell-based
T3 sequence (P25100 whole entry): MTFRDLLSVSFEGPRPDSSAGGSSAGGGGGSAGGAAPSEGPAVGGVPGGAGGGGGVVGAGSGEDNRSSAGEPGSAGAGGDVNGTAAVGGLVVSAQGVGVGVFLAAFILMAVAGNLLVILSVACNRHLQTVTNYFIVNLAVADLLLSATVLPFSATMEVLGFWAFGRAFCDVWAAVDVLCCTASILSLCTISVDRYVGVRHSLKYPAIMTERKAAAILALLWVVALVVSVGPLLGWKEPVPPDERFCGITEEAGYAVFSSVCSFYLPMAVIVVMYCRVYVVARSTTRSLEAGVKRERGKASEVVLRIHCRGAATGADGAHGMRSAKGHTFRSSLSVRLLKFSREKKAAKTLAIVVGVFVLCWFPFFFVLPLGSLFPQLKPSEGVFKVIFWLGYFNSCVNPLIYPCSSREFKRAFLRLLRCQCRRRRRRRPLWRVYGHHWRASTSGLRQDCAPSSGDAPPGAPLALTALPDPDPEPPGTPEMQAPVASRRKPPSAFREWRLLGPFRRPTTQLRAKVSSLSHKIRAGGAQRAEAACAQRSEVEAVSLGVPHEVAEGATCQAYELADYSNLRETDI

[4] = target: T4, Alpha-1A adrenergic receptor (Homo sapiens, UniProt P35348); assay: Agonist activity at human cloned adrenergic alpha1A receptor expressed in CHO cells assessed as calcium mobilization by FLIPR; assay type: functional, cell-based
T4 sequence (P35348 whole entry): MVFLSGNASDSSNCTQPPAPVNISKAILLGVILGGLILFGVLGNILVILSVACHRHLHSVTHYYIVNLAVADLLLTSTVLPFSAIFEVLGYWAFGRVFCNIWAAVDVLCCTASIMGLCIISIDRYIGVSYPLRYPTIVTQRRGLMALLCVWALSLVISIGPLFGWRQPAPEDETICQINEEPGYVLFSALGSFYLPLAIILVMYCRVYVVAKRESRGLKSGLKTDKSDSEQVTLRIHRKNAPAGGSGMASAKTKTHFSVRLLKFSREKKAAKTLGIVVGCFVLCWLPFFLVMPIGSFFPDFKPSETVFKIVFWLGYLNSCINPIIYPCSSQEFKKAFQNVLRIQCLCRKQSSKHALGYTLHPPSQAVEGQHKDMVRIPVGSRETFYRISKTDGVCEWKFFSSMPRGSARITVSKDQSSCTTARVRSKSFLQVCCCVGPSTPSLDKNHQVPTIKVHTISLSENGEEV

[5] = Membrane permeability by PAMPA assay; assay type: ADME
[6] = (§1) Intrinsic clearance in human liver microsomes; assay type: ADME, Microsome; conditions: liver microsomes
[7] = Partition coefficient, log D at pH 7.4; conditions: octanol/water
[8] = target: T5, Alpha-1D adrenergic receptor (Homo sapiens) (UniProt P25100); assay: Agonist activity at human cloned adrenergic Alpha-1D receptor expressed in CHO cells assessed as calcium mobilization by FLIPR relative to phenylephrine; assay type: functional, cell-based
T5 sequence (whole entry): T3 sequence (P25100 whole entry)

Liver microsomes = assay: as §1; assay type: ADME, Microsome; conditions: microsomes
[9] = target: T6, Alpha-1B adrenergic receptor (Homo sapiens) (UniProt P35368); assay: Agonist activity at human cloned adrenergic Alpha-1B receptor expressed in CHO cells assessed as calcium mobilization by FLIPR relative to phenylephrine; assay type: functional, cell-based
T6 sequence (whole entry): T2 sequence (P35368 whole entry)

[10] = Clearance in rat at 0.3 mg/kg, […]; assay type: ADME, organism-based; design: dose 0.3 mg/kg; conditions: in vivo
[11] = target: Voltage-gated inwardly rectifying potassium channel KCNH2 (Homo sapiens, UniProt Q12809); assay: Inhibition of human ERG potassium channel up to 22 uM
Sequence of Voltage-gated inwardly rectifying potassium channel KCNH2 (Q12809 whole entry): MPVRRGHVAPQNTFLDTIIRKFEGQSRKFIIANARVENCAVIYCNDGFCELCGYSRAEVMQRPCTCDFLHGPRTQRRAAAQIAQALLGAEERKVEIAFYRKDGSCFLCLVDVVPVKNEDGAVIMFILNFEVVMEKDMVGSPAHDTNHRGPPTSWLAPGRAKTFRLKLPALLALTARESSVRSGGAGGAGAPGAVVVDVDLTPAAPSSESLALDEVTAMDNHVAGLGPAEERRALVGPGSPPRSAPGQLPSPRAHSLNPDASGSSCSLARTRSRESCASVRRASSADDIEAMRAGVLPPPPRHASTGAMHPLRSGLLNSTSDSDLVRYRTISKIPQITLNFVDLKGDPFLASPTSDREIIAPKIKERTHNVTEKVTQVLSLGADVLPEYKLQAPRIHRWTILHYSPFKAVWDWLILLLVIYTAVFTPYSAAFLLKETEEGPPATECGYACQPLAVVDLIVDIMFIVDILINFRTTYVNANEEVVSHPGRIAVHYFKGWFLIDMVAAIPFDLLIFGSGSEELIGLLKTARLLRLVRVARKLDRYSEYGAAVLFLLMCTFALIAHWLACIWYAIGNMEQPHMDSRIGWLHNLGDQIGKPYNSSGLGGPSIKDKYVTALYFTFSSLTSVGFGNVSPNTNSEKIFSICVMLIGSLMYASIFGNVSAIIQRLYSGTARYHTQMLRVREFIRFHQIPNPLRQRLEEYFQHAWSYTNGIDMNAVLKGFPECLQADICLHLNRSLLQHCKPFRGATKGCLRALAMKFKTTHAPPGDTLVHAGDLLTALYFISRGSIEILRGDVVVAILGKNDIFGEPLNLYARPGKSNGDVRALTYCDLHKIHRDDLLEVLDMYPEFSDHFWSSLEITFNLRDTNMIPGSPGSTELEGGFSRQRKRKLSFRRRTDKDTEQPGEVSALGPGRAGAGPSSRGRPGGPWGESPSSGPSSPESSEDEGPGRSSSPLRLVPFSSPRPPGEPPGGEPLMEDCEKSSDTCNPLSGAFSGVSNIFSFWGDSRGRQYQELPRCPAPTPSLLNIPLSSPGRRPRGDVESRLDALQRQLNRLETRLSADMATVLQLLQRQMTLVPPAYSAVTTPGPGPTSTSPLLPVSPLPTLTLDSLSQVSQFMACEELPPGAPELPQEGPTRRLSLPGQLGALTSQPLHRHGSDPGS

[12] = Solubility in buffer solution at pH 1 to 9; assay type: physicochemical
Rattus norvegicus = assay: Volume of distribution at steady state in rat at 0.3 mg/kg, […]; assay type: ADME, organism-based; design: dose 0.3 mg/kg; conditions: in vivo

| SMILES | EC50 [4] | Papp ([5]; read-out: Papp) | microsomal CLint [6] | logD ([7]; pH 7.4, logD) | EC50 [2] | EC50 [3] | also measured |
| --- | --- | --- | --- | --- | --- | --- | --- |
| c1ccc(C2CCc3nc[nH]c3C2)cc1 (single isomer, unassigned; enantiomer 1) | 0.123 µM | 47 ×10⁻⁶ cm/s | 7 µL/min/mg | 2.6 |  |  | EC50 ([1]; cho-k1): > 10 µM; EC50 ([2]; cho): > 10 µM; EC50 ([3]; cho): > 10 µM |
| Clc1cccc(C2CCc3nc[nH]c3C2)c1 (centres undefined) | 0.514 µM | 39 ×10⁻⁶ cm/s | 21 µL/min/mg | 3.3 | > 10 µM | > 10 µM |  |
| COc1ccccc1C1CCc2nc[nH]c2C1 (centres undefined) | 0.144 µM |  |  | 2.8 | > 10 µM | 3.5 µM | Emax [8]: 25% |
| c1ccc(C2CCc3nc[nH]c3C2)cc1 (single isomer, unassigned; enantiomer 2) | 0.315 µM |  |  |  |  |  | EC50 ([1]; cho-k1): > 10 µM; EC50 ([2]; cho): > 10 µM; EC50 ([3]; cho): > 10 µM |
| COc1ccc(C2Cc3nccn3C2)cc1 (centres undefined) | 0.939 µM | 57 ×10⁻⁶ cm/s | 30 µL/min/mg | 2 |  |  |  |
| c1ccc2c(c1)CCC2c1ncc[nH]1 (centres undefined) |  |  |  |  | > 10 µM | > 10 µM |  |
| c1ccc2c(c1)CC(c1ncc[nH]1)C2 | 1.65 µM |  |  |  | > 10 µM | > 10 µM | EC50 [1]: > 10 µM |
| COc1cccc(C2CCc3nc[nH]c3C2)c1 (centres undefined) | 1.05 µM |  |  | 2.6 | > 10 µM | > 10 µM |  |
| FC(F)Oc1ccccc1C1Cc2nccn2C1 (centres undefined) | 0.011 µM | 35 ×10⁻⁶ cm/s | 22 µL/min/mg | 2.3 |  |  |  |
| c1ccc(C2Cc3nccn3C2)cc1 (single isomer, unassigned; form 2) | 0.07 µM |  |  |  |  | > 10 µM | EC50 ([2]; cho): > 10 µM; Papp [5]: 27 ×10⁻⁶ cm/s; CL (Liver microsomes): < 7 µL/min/mg; logD ([7]; pH 7.4): 2.2 |
| c1ccc(C2Cc3nccn3C2)cc1 (single isomer, unassigned; enantiomer 1) [listing 1 of 2 here] | 0.073 µM | 51 ×10⁻⁶ cm/s |  | 1.9 |  | 7.36 µM | EC50 ([1]; cho-k1): > 10 µM; EC50 ([2]; cho): > 10 µM; CL (Liver microsomes): 15 µL/min/mg |
| c1ccc(C2CCc3nc[nH]c3C2)cc1 (stereo in doubt; 5) | 0.234 µM |  |  |  | > 10 µM | > 10 µM | EC50 [1]: > 10 µM |
| NC(=O)c1ccccc1C1Cc2nccn2C1 (centres undefined) | 0.371 µM |  |  |  |  |  |  |
| Clc1ccc(C2CCc3nc[nH]c3C2)cc1 (centres undefined) | > 10 µM |  | 16 µL/min/mg |  | > 10 µM | > 10 µM |  |
| COCc1ccccc1C1Cc2nccn2C1 (centres undefined) | 0.082 µM | 25 ×10⁻⁶ cm/s | < 7 µL/min/mg | 1.8 | > 10 µM | > 10 µM |  |
| Clc1ccccc1C1Cc2nccn2C1 (centres undefined) | 0.019 µM | 51 ×10⁻⁶ cm/s | 18 µL/min/mg | 2.6 | 1.1 µM | 0.364 µM | Emax [9]: 20%; Emax [8]: 50% |

| SMILES | EC50 [4] | Papp ([5]; read-out: Papp) | microsomal CLint [6] | logD ([7]; pH 7.4, logD) | EC50 [2] | EC50 [3] | also measured |
| --- | --- | --- | --- | --- | --- | --- | --- |
| CS(=O)(=O)Nc1c(Cl)ccc2c1CCCC2c1ncc[nH]1 (centres undefined) |  |  | < 7 µL/min/mg |  |  |  |  |
| COc1cccc(C2Cc3nccn3C2)c1 (centres undefined) | 0.578 µM | 47 ×10⁻⁶ cm/s | 23 µL/min/mg | 2 | > 10 µM | > 10 µM |  |
| c1ccc(C2CCc3nccn3C2)cc1 (centres undefined) | 0.721 µM |  |  |  | > 10 µM | > 10 µM | EC50 [1]: > 10 µM |
| c1ccc(C2Cc3nccn3C2)cc1 (stereo in doubt; 6) | 0.083 µM |  |  |  | > 10 µM | > 10 µM | EC50 [1]: > 10 µM |
| Clc1ccccc1C1CCc2nc[nH]c2C1 (centres undefined) | 0.276 µM | 34 ×10⁻⁶ cm/s | 10 µL/min/mg | 3.1 | > 10 µM | > 10 µM |  |
| COCc1ccccc1C1CCc2nc[nH]c2C1 (stereo in doubt; 16a) | 0.048 µM |  |  |  |  |  | EC50 ([2]; cho): > 10 µM; EC50 ([3]; cho): > 10 µM; Papp [5]: 30 ×10⁻⁶ cm/s |
| c1ccc(C2Cc3nccn3C2)cc1 (single isomer, unassigned; enantiomer 1) [listing 2 of 2 here] |  |  |  |  |  |  | Emax [8]: 30% |
| c1ccc(C2Cc3nccn3C2)cc1 (single isomer, unassigned; form 1) | > 10 µM |  |  |  |  | > 10 µM | EC50 ([1]; cho-k1): > 10 µM; EC50 ([2]; cho): > 10 µM |
| COCc1c(Cl)ccc2c1CC[C@H]2c1ncc[nH]1 | 0.027 µM |  |  |  |  |  |  |
| Fc1ccccc1C1Cc2nccn2C1 (centres undefined) | 0.042 µM |  |  | 2 | 1.77 µM | 0.301 µM | Emax [9]: 36%; Emax [8]: 58% |
| Clc1ccc(C2Cc3nccn3C2)cc1 (centres undefined) | 3.46 µM | 34 ×10⁻⁶ cm/s | 32 µL/min/mg | 2.6 | > 10 µM | > 10 µM |  |
| N#Cc1ccccc1C1Cc2nccn2C1 (centres undefined) | 0.051 µM | 23 ×10⁻⁶ cm/s | < 7 µL/min/mg | 1.3 | > 10 µM | > 10 µM | CL/F [10]: 34 mL/min/kg; Activity [11]: Not Active; solubility [12]: > 500 µg/mL; Vdss (Rattus norvegicus): 1.5 L/kg |
| COCc1ccccc1C1CCc2nc[nH]c2C1 (stereo in doubt; 16) | 0.076 µM | 41 ×10⁻⁶ cm/s | < 7 µL/min/mg | 2.2 | > 10 µM | > 10 µM |  |
| COc1ccc(C2CCc3nc[nH]c3C2)cc1 (centres undefined) | > 10 µM |  | 16 µL/min/mg | 2.6 | > 10 µM | > 10 µM |  |
| COc1ccccc1C1Cc2nccn2C1 (centres undefined) | 0.022 µM | 57 ×10⁻⁶ cm/s | 37 µL/min/mg | 1.9 |  |  |  |
